In US20040121316A1 (priority 2002, published 2004):
Where two headings read alike, the source gives them in different places. Peptide text beside a SMILES is read from it. * marks the point of attachment. MeOSuc = COC(=O)CCC(=O)*; CH2Cl = ClC*

Tests used:
84V90M HIV protease = 84V90M HIV protease (Human immunodeficiency virus type 1 group M subtype B, UniProt P04585, I572V/L578M); assay: biochemical; set-up: species or system HIV-1
WT HIV-1 [1] = assay: microbe, parasite or virus in culture; assay type: cell-based
[2] = target: T1, recombinant HIV-1 protease (Human immunodeficiency virus type 1 group M subtype B, UniProt P04585); assay: biochemical
T1 construct: Enzyme: recombinant HIV-1 protease expressed in E.Coli; purchased Bachem California, Inc. H-9040; host or cells: E. coli

WT HIV protease = target: T2, WT HIV protease (Human immunodeficiency virus type 1 group M subtype B, UniProt P04585); assay: biochemical; set-up: species or system HIV-1
T2 construct: synthetic hexapeptide substrate cleavage by HIV-1 protease

[3] = test system: recombinant HIV-1 30N 50S 82I 88D; assay: microbe, parasite or virus in culture; assay type: cell-based; conditions: Human immunodeficiency virus 1, MT4, read-out: Cell-based assay (MT-4) EC50/nM 30N 82I 88D
HIV-1 protease 84V90M = target: T3, HIV-1 protease 84V90M (Human immunodeficiency virus type 1 group M subtype B, UniProt P04585, I572V/L578M); assay: Enzymatic assay, IC50 against 84V90M mutant protease; assay type: biochemical
T3 construct: synthetic hexapeptide substrate cleavage by HIV-1 protease

[4] = test system: recombinant HIV-1 48V 54V 71V 82S; assay: microbe, parasite or virus in culture; assay type: cell-based; conditions: Human immunodeficiency virus 1, MT4, read-out: Cell-based assay (MT-4) EC50/nM 48V 54V 82S
[5] = test system: recombinant HIV-1 10I 84V 71V 73S 90M; assay: microbe, parasite or virus in culture; assay type: cell-based; conditions: Human immunodeficiency virus 1, MT4, read-out: Cell-based assay (MT-4) EC50/nM 84V 90M
[6] = test system: recombinant HIV-1 10I 48V 71V 82A 90M; assay: microbe, parasite or virus in culture; assay type: cell-based; conditions: Human immunodeficiency virus 1, MT4, read-out: Cell-based assay (MT-4) EC50/nM 48V 82A 90M
[7] = test system: recombinant HIV-1 10I 48V 54V 82A; assay: microbe, parasite or virus in culture; assay type: cell-based; conditions: Human immunodeficiency virus 1, MT4, read-out: Cell-based assay (MT-4) EC50/nM 48V 54V 82A
WT HIV-1 [8] = assay: microbe, parasite or virus in culture; assay type: cell-based; remark: listed apart in the source
[9] = test system: recombinant HIV-1 46I 47V 50V; assay: microbe, parasite or virus in culture; assay type: cell-based; conditions: Human immunodeficiency virus 1, MT4, read-out: Cell-based assay (MT-4) EC50/nM 47I 50V
HIV-1 46I50V = assay: microbe, parasite or virus in culture; assay type: cell-based; conditions: MT-4, 46I50V, read-out: Cell-based assay (MT-4) EC50/nM 46I50V
HIV-1 48V54V82A = assay: microbe, parasite or virus in culture; assay type: cell-based; conditions: MT-4, 48V54V82A, read-out: Cell-based assay (MT-4) EC50/nM 48V54V82A
HIV-1 84V90M = assay: microbe, parasite or virus in culture; assay type: cell-based; conditions: MT-4, 84V90M, read-out: Cell-based assay (MT-4) EC50/nM 84V90M
HIV-1 30N82I88D = assay: microbe, parasite or virus in culture; assay type: cell-based; conditions: MT-4, 30N82I88D, read-out: Cell-based assay (MT-4) EC50/nM 30N82I88D
in vivo = conditions: beagle, dog, po
in vitro = conditions: human
[10] = test system: recombinant HIV-1 strains with resistance mutations in the protease gene; assay: Cross-Resistance Profile Assay, whole panel; assay type: cell-based
[11] = test system: wild-type HIV-1 strain IIIB; assay: microbe, parasite or virus in culture; assay type: cell-based; conditions: Human immunodeficiency virus 1, IIIB
[12] = not given; remark: listed apart in the source
[13] = not given; remark: listed apart in the source
[14] = test system: PBMC in human whole blood
[15] = test system: MT-2 cells, stimulated and quiescent PBMC
[16] = target: porcine liver carboxylesterase (PLCE) (Sus scrofa, UniProt Q29550); assay type: biochemical; conditions: read-out: IC50 (μM) PLCE
porcine liver carboxylesterase (PLCE), sequence (Q29550 whole entry): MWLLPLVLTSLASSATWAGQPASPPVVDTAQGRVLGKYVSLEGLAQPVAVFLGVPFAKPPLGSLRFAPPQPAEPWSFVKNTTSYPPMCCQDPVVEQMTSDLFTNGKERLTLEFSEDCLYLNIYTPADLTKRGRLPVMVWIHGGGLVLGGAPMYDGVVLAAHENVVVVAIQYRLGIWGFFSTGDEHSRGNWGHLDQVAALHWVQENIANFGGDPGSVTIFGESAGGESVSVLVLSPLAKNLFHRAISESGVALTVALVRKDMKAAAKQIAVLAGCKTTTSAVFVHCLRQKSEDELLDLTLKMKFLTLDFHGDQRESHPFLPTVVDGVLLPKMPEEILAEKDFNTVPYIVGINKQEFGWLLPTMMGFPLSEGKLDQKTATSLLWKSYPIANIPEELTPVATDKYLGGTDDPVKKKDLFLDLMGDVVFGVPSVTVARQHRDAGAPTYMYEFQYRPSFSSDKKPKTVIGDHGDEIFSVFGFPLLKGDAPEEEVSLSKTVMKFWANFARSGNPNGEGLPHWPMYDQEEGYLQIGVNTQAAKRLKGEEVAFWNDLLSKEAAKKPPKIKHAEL

mutant HIV-1 I84V/L90M = assay: Resistance Evaluation, I84V/L90M fold change; assay type: cell-based; conditions: EC50 of mutant I84V/L90M relative to wild type; class symbols
[17] = Human immunodeficiency virus 1, read-out: Cell-based assay (MT-4) EC50/nM WT
[18] = Human immunodeficiency virus 1, MT4, read-out: Cell-based assay (MT-4) EC50/nM WT
[19] = MT2, 120 h, read-out: Anti-HIV-1 Cell Culture Activity EC50
[20] = Enzymatic assay, 84V90M, read-out: 84V90M IC50/nM
[21] = read-out: Cell-based assay (MT-4) EC50/nM WT

Nc1n[nH]c2ccc(CN3C(=O)N(Cc4ccc(OCP(=O)(O)O)cc4)C(Cc4ccccc4)C(O)C(O)C3Cc3ccccc3)cc12 (stereo not shown) [p-OCH2PO3H2]
IC50 (84V90M HIV protease): 1660 nM
EC50 (WT HIV-1 [1]; [17]): > 12000 nM
Ki ([2]; Ki (nM)): > 5 nM
IC50 (WT HIV protease): 551 nM

CCOP(=O)(CCNC(=O)Oc1ccc(CC2C(O)C(O)C(Cc3ccc(OC)cc3)N(Cc3ccc(O)cc3)C(=O)N2Cc2ccc(O)cc2)cc1)OCC (stereo not shown) [OCH3/Ph-pOH/OCONH(CH2)2PO3Et2]
EC50 [3]: 31 nM
IC50 (HIV-1 protease 84V90M): 0.049 µM
EC50 [4]: 51 nM
EC50 [5]: 495 nM
EC50 [6]: 55 nM
EC50 [7]: 74 nM
EC50 (WT HIV-1 [8]; [18]): 33 nM
EC50 [9]: 223 nM

Nc1n[nH]c2ccc(CN3C(=O)N(Cc4cccc(OCP(=O)(Oc5ccccc5)Oc5ccccc5)c4)C(Cc4ccccc4)C(O)C(O)C3Cc3ccccc3)cc12 (stereo not shown) [m-OCH2PO3Ph2]
EC50 (HIV-1 46I50V; Human immunodeficiency virus 1): 3380 nM
IC50 (84V90M HIV protease): 42 nM
EC50 (HIV-1 48V54V82A; Human immunodeficiency virus 1): 2180 nM
EC50 (WT HIV-1 [1]; [17]): 1350 nM
EC50 (HIV-1 84V90M; Human immunodeficiency virus 1): > 6000 nM
Ki ([2]; Ki (nM), Enzymatic assay): 0.543 nM
EC50 (HIV-1 30N82I88D; Human immunodeficiency virus 1): 1540 nM
IC50 (WT HIV protease): 10 nM

CC(C)CN(C[C@@H](O)[C@H](Cc1ccccc1)NC(=O)O[C@H]1CCOC1)S(=O)(=O)c1ccc(N)cc1 [Amprenavir, reference compound]
AUC (in vivo): 102 µM·h
half-life (in vivo): 1.7 h
CC50 (in vitro): > 50 µM
Total No. of Resistant Viruses ([10]; {}): 4
EC50 [11]: < 0.05 µM
EC50 [11, 19]: 0.016 ± 0.0022 µM

O=C1N(Cc2ccccc2)C(Cc2ccccc2)C(O)C(O)C(Cc2ccc(OCP(=O)(O)O)cc2)N1Cc1ccccc1 (stereo not shown)
IC50 (HIV-1 protease 84V90M): 0.21 µM
EC50 [5]: > 6000 nM
EC50 (WT HIV-1 [8]; [18]): > 6000 nM

O=C1N(Cc2ccccc2)C(Cc2ccccc2)C(O)C(O)C(Cc2ccc(OCP(=O)(OCc3ccccc3)OCc3ccccc3)cc2)N1Cc1ccccc1 (stereo not shown)
EC50 [3]: 3140 nM
IC50 (HIV-1 protease 84V90M): 0.158 µM
EC50 [5]: > 6000 nM
EC50 [7]: > 6000 nM
EC50 (WT HIV-1 [8]; [18]): 1770 nM

CCOC(=O)C(C)NP(=O)(COc1cccc(CN2C(=O)N(Cc3ccc4[nH]nc(N)c4c3)C(Cc3ccccc3)C(O)C(O)C2Cc2ccccc2)c1)NC(C)C(=O)OCC (stereo not shown) [m-bis-Ala-Et]
IC50 (84V90M HIV protease; [20]): 202 nM
EC50 (WT HIV-1 [1]; [21]): 5620 nM
EC50 (HIV-1 84V90M): > 6000 nM
Ki ([2]; read-out: Ki): 1.99 nM
EC50 (HIV-1 30N82I88D): 1850 nM
IC50 (WT HIV protease; read-out: WT IC50/nM): 31 nM

CCOC(=O)C(C)NP(=O)(COc1ccc(CC(NC(=O)OC2COC3OCCC23)C(O)CN(CC(C)C)S(=O)(=O)c2ccc(OC)cc2)cc1)Oc1ccccc1 (stereo not shown) [GS-16571]
Dog Plasma T1/2: 2.1 h
Dog Plasma T1/2, min: 2.1 h
Human Serum T1/2 [12]: 1.83 h
Human Serum T1/2, min [12]: 1.83 h
Total No. of Resistant Viruses ([10]; resistance = 5-fold and higher change in EC50 of the mutant relative to wild-type, 11 mutant viruses): 0
PBMC Extract T1/2 [13]: 0.817 h
PBMC Extract T1/2, min [13]: 0.817 h
Intracellular Acid Metabolite Concentration [14]: 319 ± 112 µM
Intracellular Concentration, Acid Metabolite [14]: 319 ± 112 µM
Intracellular Concentration, Prodrug [14]: 137 ± 62 µM
Intracellular Prodrug [14]: 137 ± 62 µM
Intracellular Prodrug and Metabolites Concentration, Total [14]: 432 ± 208 µM
Intracellular Prodrug and Metabolites Total [14]: 432 ± 208 µM
Major Intracellular Metabolites [14]: X, GS-8373
intracellular metabolites formed [15]: Metabolite X and GS-8373
EC50 (WT HIV-1 [8]; XTT-based cytopathic assay, read-out: EC50 WT HIV-1): 22 nM

COC(=O)CCC(=O)N[C@@H](C)C(=O)N[C@@H](C)C(=O)N1CCC[C@H]1C(=O)N[C@@H](C)C(=O)CCl [MeOSuC-Ala-Ala-Pro-Ala-CMK] (MeOSuc-AAPA-CH2Cl)
IC50 [16]: > 1000 µM

Nc1n[nH]c2ccc(CN3C(=O)N(Cc4cccc(OCP(=O)(O)O)c4)C(Cc4ccccc4)C(O)C(O)C3Cc3ccccc3)cc12 (stereo not shown) [m-OCH2PO3H2]
IC50 (84V90M HIV protease): 33 nM
EC50 (WT HIV-1 [1]; [17]): > 12000 nM
Ki ([2]; Ki (nM)): 0.254 nM
IC50 (WT HIV protease): 8.3 nM

CCOP(=O)(COc1ccc(CC2C(O)C(O)C(Cc3ccc(OC)cc3)N(Cc3cccc(N)c3)C(=O)N2Cc2cccc(N)c2)cc1)OCC (stereo not shown) [OCH3/Ph-mNH2/OCH2PO3Et2]
EC50 [3]: 18 nM
IC50 (HIV-1 protease 84V90M): 0.056 µM
EC50 [4]: 117 nM
EC50 [5]: 535 nM
EC50 [6]: 102 nM
EC50 [7]: 202 nM
EC50 (WT HIV-1 [8]; [18]): 63 nM
EC50 [9]: 36 nM

CCCCOC(=O)C(C)NP(=O)(COc1cccc(CN2C(=O)N(Cc3ccc4[nH]nc(N)c4c3)C(Cc3ccccc3)C(O)C(O)C2Cc2ccccc2)c1)NC(C)C(=O)OCCCC (stereo not shown) [m-bis-Ala-Bu]
EC50 (HIV-1 46I50V): 1540 nM
IC50 (84V90M HIV protease; [20]): 103 nM
EC50 (HIV-1 48V54V82A): 1850 nM
EC50 (WT HIV-1 [1]; [21]): 1080 nM
EC50 (HIV-1 84V90M): > 6000 nM
Ki ([2]; read-out: Ki): 1.28 nM
EC50 (HIV-1 30N82I88D): 2360 nM
IC50 (WT HIV protease; read-out: WT IC50/nM): 18 nM

CCOC(=O)C(C)NP(=O)(COc1ccc(CC(NC(=O)OC2COC3OCCC23)C(O)CN(CC(C)C)S(=O)(=O)c2ccc(OC)cc2)cc1)NC(C)C(=O)OCC (stereo not shown) [drawing 612 R1=Ala-Et R2=Ala-Et]
CC50 (in vitro): > 50 µM
EC50 [11]: 0.05 to 0.5 µM
I84V/L90M fold change (mutant HIV-1 I84V/L90M): − (≦3)

Nc1n[nH]c2ccc(CN3C(=O)N(Cc4cccc(OCP(=O)(O)Oc5ccccc5)c4)C(Cc4ccccc4)C(O)C(O)C3Cc3ccccc3)cc12 (stereo not shown) [m-OCH2PO3HPh]
IC50 (84V90M HIV protease): 65 nM
EC50 (WT HIV-1 [1]; [17]): 1740 nM
EC50 (HIV-1 84V90M; Human immunodeficiency virus 1): > 6000 nM
Ki ([2]; Ki (nM), Enzymatic assay): 0.644 nM
IC50 (WT HIV protease): 17 nM

COc1ccc(S(=O)(=O)N(CC(C)C)C[C@@H](O)[C@H](Cc2ccccc2)NC(=O)O[C@H]2CO[C@H]3OCC[C@H]32)cc1 [Example 94-003, reference compound]
CC50 (in vitro): 5 to 50 µM
Total No. of Resistant Viruses ([10]; {}): 3
EC50 [11]: < 0.05 µM
EC50 [11, 19]: 0.0014 ± 0.0003 µM

Cc1c(O)cccc1C(=O)N[C@@H](CSc1ccccc1)[C@H](O)CN1C[C@H]2CCCC[C@H]2C[C@H]1C(=O)NC(C)(C)C [Nelfinavir]
AUC (in vivo): 33 µM·h
half-life (in vivo): 3 h
distribution between cytosol and membrane fractions (quiescent PBMC): present only in the membrane fractions
Total No. of Resistant Viruses ([10]; {}): 9
EC50 [11]: < 0.05 µM

COC(=O)CCC(=O)N[C@@H](C)C(=O)N[C@@H](C)C(=O)N1CCC[C@H]1C(=O)N[C@H](C(=O)CCl)C(C)C [MeOSuc-Ala-Ala-Pro-Val-CMK] (MeOSuc-AAPV-CH2Cl)
IC50 [16]: > 1000 µM

Nc1n[nH]c2ccc(CN3C(=O)N(CCCCO)C(Cc4ccccc4)C(O)C(O)C3Cc3ccccc3)cc12 (stereo not shown) [CH2OH]
EC50 (HIV-1 46I50V): 524 nM
IC50 (84V90M HIV protease; [20]): 31 nM
EC50 (HIV-1 48V54V82A): 413 nM
EC50 (WT HIV-1 [1]; [21]): 253 nM
EC50 (HIV-1 84V90M): 1110 nM
Ki ([2]; read-out: Ki): 0.017 nM
EC50 (HIV-1 30N82I88D): 486 nM
IC50 (WT HIV protease; read-out: WT IC50/nM): 2.8 nM
